# According to US20110081315A1, “NOVEL MACROCYCLIC INHIBITORS OF HEPATITIS C VIRUS REPLICATION” (INTERMUNE, INC., priority 2009, published 2011):
# What was measured:
# [1] = molecular target: NS3/NS4 complexes (Hepatitis C virus genotype 1a, UniProt P27958); experiment: NS3/NS4 inhibition assay (IC50); type: biochemical; details: NS3/NS4 activity; 23° C., 25 μM NS4A peptide
# Source text: (§1) NS3-NS4 inhibition activity can be determined using known assay methods. For example, NS3/NS4 complexes may be formed and inhibitory concentrations of test compounds determined as described in U.S. Patent Application Publication Number 2007/0054842 paragraph numbers 1497-1509, which is incorporated herein by reference in its entirety. Similarly, hepatitis C replicon EC50 may be determined using known assay methods such as described in U.S. Patent Application Publication Number 2007/0054842 paragraph numbers 1510-1515, which is incorporated herein by reference in its entirety. Assays may be conducted at ambient temperature (23° C.) in assay buffer containing 50 mM Tris-HCl, pH 7.5, 15% glycerol, 0.6 mM Lauryldimethylamine Oxide (LDAO), 25 μM NS4A peptide, and 10 mM Dithiothreitol (DTT).
# [2] = test system: hepatitis C replicon; experiment: hepatitis C replicon EC50 assay; type: cell-based; details: Hepatitis C virus; hepatitis C replicon; read-out: EC50
# Source text: as §1
# Chain of NS3/NS4 complexes (P27958 1027-1657, one chain of several): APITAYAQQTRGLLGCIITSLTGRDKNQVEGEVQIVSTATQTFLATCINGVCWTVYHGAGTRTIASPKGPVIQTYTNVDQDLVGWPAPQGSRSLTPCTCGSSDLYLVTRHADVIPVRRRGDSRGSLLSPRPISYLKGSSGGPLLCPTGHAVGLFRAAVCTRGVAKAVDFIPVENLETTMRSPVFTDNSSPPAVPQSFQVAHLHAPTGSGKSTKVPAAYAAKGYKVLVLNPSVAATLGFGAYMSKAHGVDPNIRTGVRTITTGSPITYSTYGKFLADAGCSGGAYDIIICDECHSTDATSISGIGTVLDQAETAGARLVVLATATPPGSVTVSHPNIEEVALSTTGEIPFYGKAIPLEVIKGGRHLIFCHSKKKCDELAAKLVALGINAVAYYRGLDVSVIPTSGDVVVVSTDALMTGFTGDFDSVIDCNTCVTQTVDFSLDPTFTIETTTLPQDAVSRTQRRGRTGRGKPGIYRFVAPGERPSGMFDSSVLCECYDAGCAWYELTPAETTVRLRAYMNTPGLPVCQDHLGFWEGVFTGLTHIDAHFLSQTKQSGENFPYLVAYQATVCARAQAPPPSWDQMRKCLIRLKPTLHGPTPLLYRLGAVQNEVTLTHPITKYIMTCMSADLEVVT
SMILES,IC50 [1] [nM],EC50 [2] [nM]
CC(C)n1c(O[C@@H]2C[C@H]3C(=O)N[C@]4(C(=O)NS(=O)(=O)C5(C)CC5)C[C@H]4/C=C\CCCCC[C@H](Nc4cccc(C(C)(C)C)c4)C(=O)N3C2)nc2ccccc21 [Compound 200],< 10,< 10
CC(C)c1cccc2c1nc(O[C@@H]1C[C@H]3C(=O)N[C@]4(C(=O)NS(=O)(=O)C5(C)CC5)C[C@H]4/C=C\CCCCC[C@H](Nc4ccccc4)C(=O)N3C1)n2C(C)C [Compound 201],< 10,10 to 100
CC(C)c1ccc2c(c1)nc(O[C@@H]1C[C@H]3C(=O)N[C@]4(C(=O)NS(=O)(=O)C5(C)CC5)C[C@H]4/C=C\CCCCC[C@H](Nc4ccccc4)C(=O)N3C1)n2C(C)C [Compound 202],< 10,> 100
CC(C)n1c(O[C@@H]2C[C@H]3C(=O)N[C@]4(C(=O)NS(=O)(=O)C5(C)CC5)C[C@H]4/C=C\CCCCC[C@H](Nc4ccccc4)C(=O)N3C2)nc2c(-c3ccccc3)cccc21 [Compound 203],< 10,10 to 100
CC(C)n1c(O[C@@H]2C[C@H]3C(=O)N[C@]4(C(=O)NS(=O)(=O)C5(C)CC5)C[C@H]4/C=C\CCCCC[C@H](Nc4ccccc4)C(=O)N3C2)nc2c(C(F)(F)F)cccc21 [Compound 204],< 10,10 to 100
CN(C)S(=O)(=O)NC(=O)[C@@]12C[C@H]1/C=C\CCCCC[C@H](NC(=O)OC(C)(C)C)C(=O)N1C[C@H](Oc3nc4ccccc4n3C3CC3)C[C@H]1C(=O)N2 [Compound 205],< 10,< 10
CN(C)S(=O)(=O)NC(=O)[C@@]12C[C@H]1/C=C\CCCCC[C@H](NC(=O)OC(C)(C)C)C(=O)N1C[C@H](Oc3nc4ccccc4n3C(C)(C)C)C[C@H]1C(=O)N2 [Compound 206],< 10,< 10
CN(C)S(=O)(=O)NC(=O)[C@@]12C[C@H]1/C=C\CCCCC[C@H](NC(=O)OC(C)(C)C)C(=O)N1C[C@H](Oc3nc4ccccc4n3-c3ccccc3)C[C@H]1C(=O)N2 [Compound 207],< 10,< 10
CC(C)n1c(O[C@@H]2C[C@H]3C(=O)N[C@]4(C(=O)O)C[C@H]4/C=C\CCCCC[C@H](NC(=O)OC(C)(C)C)C(=O)N3C2)nc2ccccc21 [Compound 208],< 10,> 100
CC(C)n1c(O[C@@H]2C[C@H]3C(=O)N[C@]4(C(=O)NS(=O)(=O)N(C)C)C[C@H]4/C=C\CCCCC[C@H](NC(=O)OC(C)(C)C)C(=O)N3C2)nc2cnccc21 [Compound 209],< 10,10 to 100
CC(C)n1c(O[C@@H]2C[C@H]3C(=O)N[C@]4(C(=O)NS(=O)(=O)N(C)C)C[C@H]4/C=C\CCCCC[C@H](NC(=O)OC(C)(C)C)C(=O)N3C2)nc2c(-c3ccccc3)cccc21 [Compound 210],< 10,< 10
CC(C)n1c(O[C@@H]2C[C@H]3C(=O)N[C@]4(C(=O)NS(=O)(=O)C5CC5)C[C@H]4/C=C\CCCCC[C@H](NC(=O)OC(C)(C)C)C(=O)N3C2)nc2c(-c3nccs3)cccc21 [Compound 211],< 10,< 10
CC(C)n1c(O[C@@H]2C[C@H]3C(=O)N[C@]4(C(=O)NS(=O)(=O)C5CC5)C[C@H]4/C=C\CCCCC[C@H](NC(=O)OC(C)(C)C)C(=O)N3C2)nc2c(-c3ncco3)cccc21 [Compound 212],< 10,< 10
CC(C)n1c(O[C@@H]2C[C@H]3C(=O)N[C@]4(C(=O)NS(=O)(=O)C5CC5)C[C@H]4/C=C\CCCCC[C@H](NC(=O)OC(C)(C)C)C(=O)N3C2)nc2c(-c3cccs3)cccc21 [Compound 213],< 10,< 10
CC(C)n1c(O[C@@H]2C[C@H]3C(=O)N[C@]4(C(=O)NS(=O)(=O)C5CC5)C[C@H]4/C=C\CCCCC[C@H](NC(=O)OC(C)(C)C)C(=O)N3C2)nc2c(-c3nc4ccccc4s3)cccc21 [Compound 214],< 10,< 10
Cc1csc(-c2cccc3c2nc(O[C@@H]2C[C@H]4C(=O)N[C@]5(C(=O)NS(=O)(=O)C6CC6)C[C@H]5/C=C\CCCCC[C@H](NC(=O)OC(C)(C)C)C(=O)N4C2)n3C(C)C)n1 [Compound 215],< 10,< 10
Cc1cnc(-c2cccc3c2nc(O[C@@H]2C[C@H]4C(=O)N[C@]5(C(=O)NS(=O)(=O)C6CC6)C[C@H]5/C=C\CCCCC[C@H](NC(=O)OC(C)(C)C)C(=O)N4C2)n3C(C)C)s1 [Compound 216],< 10,< 10
Cc1nc(-c2cccc3c2nc(O[C@@H]2C[C@H]4C(=O)N[C@]5(C(=O)NS(=O)(=O)C6CC6)C[C@H]5/C=C\CCCCC[C@H](NC(=O)OC(C)(C)C)C(=O)N4C2)n3C(C)C)sc1C [Compound 217],< 10,< 10

SMILES,IC50 [1] [nM],EC50 [2] [nM]
CC(C)c1csc(-c2cccc3c2nc(O[C@@H]2C[C@H]4C(=O)N[C@]5(C(=O)NS(=O)(=O)C6CC6)C[C@H]5/C=C\CCCCC[C@H](NC(=O)OC(C)(C)C)C(=O)N4C2)n3C(C)C)n1 [Compound 218],< 10,< 10
Cc1sc(-c2cccc3c2nc(O[C@@H]2C[C@H]4C(=O)N[C@]5(C(=O)NS(=O)(=O)C6CC6)C[C@H]5/C=C\CCCCC[C@H](NC(=O)OC(C)(C)C)C(=O)N4C2)n3C(C)C)nc1C(C)C [Compound 219],< 10,< 10
CC(C)n1c(O[C@@H]2C[C@H]3C(=O)N[C@]4(C(=O)NS(=O)(=O)C5CC5)C[C@H]4/C=C\CCCCC[C@H](NC(=O)OC(C)(C)C)C(=O)N3C2)nc2c(-c3nc(C(C)(C)C)cs3)cccc21 [Compound 220],< 10,< 10
CC(C)n1c(O[C@@H]2C[C@H]3C(=O)N[C@]4(C(=O)NS(=O)(=O)C5CC5)C[C@H]4/C=C\CCCCC[C@H](NC(=O)OC(C)(C)C)C(=O)N3C2)nc2c(-c3nc(-c4ccccc4)cs3)cccc21 [Compound 221],< 10,< 10
CC(C)n1c(O[C@@H]2C[C@H]3C(=O)N[C@]4(C(=O)NS(=O)(=O)C5CC5)C[C@H]4/C=C\CCCCC[C@H](NC(=O)OC(C)(C)C)C(=O)N3C2)nc2c(-c3cc(C(F)(F)F)nn3C)cccc21 [Compound 222],< 10,< 10
CC(C)n1c(O[C@@H]2C[C@H]3C(=O)N[C@]4(C(=O)NS(=O)(=O)C5CC5)C[C@H]4/C=C\CCCCC[C@H](NC(=O)OC(C)(C)C)C(=O)N3C2)nc2c(-c3cncs3)cccc21 [Compound 223],< 10,< 10
CC(C)n1c(O[C@@H]2C[C@H]3C(=O)N[C@]4(C(=O)NS(=O)(=O)C5CC5)C[C@H]4/C=C\CCCCC[C@H](NC(=O)OC(C)(C)C)C(=O)N3C2)nc2c(Br)cccc21 [Compound 224],< 10,< 10
C=Cc1cccc2c1nc(O[C@@H]1C[C@H]3C(=O)N[C@]4(C(=O)NS(=O)(=O)C5CC5)C[C@H]4/C=C\CCCCC[C@H](NC(=O)OC(C)(C)C)C(=O)N3C1)n2C(C)C [Compound 225],< 10,< 10
CC(C)n1c(O[C@@H]2C[C@H]3C(=O)N[C@]4(C(=O)NS(=O)(=O)N(C)C)C[C@H]4/C=C\CCCCC[C@H](NC(=O)OC(C)(C)C)C(=O)N3C2)nc2c(-c3nccs3)cccc21 [Compound 226],< 10,< 10
CC(C)n1c(O[C@@H]2C[C@H]3C(=O)N[C@]4(C(=O)NS(=O)(=O)N(C)C)C[C@H]4/C=C\CCCCC[C@H](NC(=O)OC(C)(C)C)C(=O)N3C2)nc2c(-c3ncco3)cccc21 [Compound 227],< 10,< 10
Cc1csc(-c2cccc3c2nc(O[C@@H]2C[C@H]4C(=O)N[C@]5(C(=O)NS(=O)(=O)N(C)C)C[C@H]5/C=C\CCCCC[C@H](NC(=O)OC(C)(C)C)C(=O)N4C2)n3C(C)C)n1 [Compound 228],< 10,< 10
Cc1cnc(-c2cccc3c2nc(O[C@@H]2C[C@H]4C(=O)N[C@]5(C(=O)NS(=O)(=O)N(C)C)C[C@H]5/C=C\CCCCC[C@H](NC(=O)OC(C)(C)C)C(=O)N4C2)n3C(C)C)s1 [Compound 229],< 10,< 10
Cc1sc(-c2cccc3c2nc(O[C@@H]2C[C@H]4C(=O)N[C@]5(C(=O)NS(=O)(=O)N(C)C)C[C@H]5/C=C\CCCCC[C@H](NC(=O)OC(C)(C)C)C(=O)N4C2)n3C(C)C)nc1C(C)C [Compound 231],< 10,10 to 100
CC(C)n1c(O[C@@H]2C[C@H]3C(=O)N[C@]4(C(=O)NS(=O)(=O)N(C)C)C[C@H]4/C=C\CCCCC[C@H](NC(=O)OC(C)(C)C)C(=O)N3C2)nc2c(-c3nc(C(C)(C)C)cs3)cccc21 [Compound 232],< 10,10 to 100
CC(C)n1c(O[C@@H]2C[C@H]3C(=O)N[C@]4(C(=O)NS(=O)(=O)N(C)C)C[C@H]4/C=C\CCCCC[C@H](NC(=O)OC(C)(C)C)C(=O)N3C2)nc2c(-c3nc(-c4ccccc4)cs3)cccc21 [Compound 233],< 10,10 to 100
CC(C)n1c(O[C@@H]2C[C@H]3C(=O)N[C@]4(C(=O)NS(=O)(=O)C5(C)CC5)C[C@H]4/C=C\CCCCC[C@H](NC(=O)OC(C)(C)C)C(=O)N3C2)nc2c(-c3nccs3)cccc21 [Compound 234],< 10,< 10
CC(C)n1c(O[C@@H]2C[C@H]3C(=O)N[C@]4(C(=O)NS(=O)(=O)C5(C)CC5)C[C@H]4/C=C\CCCCC[C@H](NC(=O)OC(C)(C)C)C(=O)N3C2)nc2c(-c3ncco3)cccc21 [Compound 235],< 10,< 10
Cc1sc(-c2cccc3c2nc(O[C@@H]2C[C@H]4C(=O)N[C@]5(C(=O)NS(=O)(=O)C6(C)CC6)C[C@H]5/C=C\CCCCC[C@H](NC(=O)OC(C)(C)C)C(=O)N4C2)n3C(C)C)nc1C(C)C [Compound 237],< 10,< 10
